Test results: patent US20230323395A1, “METHODS AND COMPOSITIONS FOR THE PRODUCTION OF ADENO-[…]” (Homology Medicines, Inc., priority 2021, published 2023)

Experiments:
Assay type in all cases: cell-based
[1] = test system: HEK293 cells (AAV producer cells); assay: AAV productivity with culture media additives supplemented two hours post-transfection, shake flasks (Example 3)
Protocol: (§1) For each parameter tested, HEK293 cells were expanded by shake flask culture with a target seed density of >0.25E6 viable cells/mL and a target final density of <6E6 viable cells/mL. Expanded cells were inoculated into an Applikon 3 L Glass Bioreactor containing the appropriate amount of cell culture medium prior to transfection at a 2 L working volume.
(§2) Cell transfection was performed generally as described in Grieger et al. (2016) Molecular Therapy 24(2): 287-297. Briefly, transfection mixes were prepared by mixing calculated volumes of vector(s), transfection media, and polyethylenimine (PEI), all at ambient temperature, and allowed to equilibrate before the transfection mixes were added to the cells. […] Productivity was measured by vector genome titer and capsid yield. Vector genome (VG) titer was determined by droplet digital PCR (ddPCR) by standard methods using primer/probe sets specific to the transgene payload of the vector comprising the transgene. Capsid yield was determined using enzyme-linked immunosorbent assays (ELISAs) by standard methods with an immobilized antibody directed against an epitope of the capsid as encoded by the vector comprising the capsid sequences. Percentage of intact vector genomes (% Full capsids) was calculated by dividing the vector genome productivity determined by ddPCR by the number of capsids determined by ELISA. […]

[2] = test system: HEK293 cells (AAV producer cells); assay: DMSO time course analysis of AAV productivity (Example 4); conditions: 1.5% (v/v) DMSO added two hours pre-transfection and up to 30 minutes post-transfection; compared to the other time points tested
Protocol: as §1, §2

[3] = test system: second HEK293 cell line (AAV producer cells); assay: AAV productivity with DMSO supplementation 30-120 minutes post-transfection, 3 L single-use bioreactors (Example 6); conditions: DMSO 120 minutes vs 30 minutes post-transfection, pH 7.0, 39° C.
Protocol: (§3) Cell transfection was performed generally as described in Grieger et al. (2016) Molecular Therapy 24(2): 287-297. Briefly, transfection mixes were prepared by mixing calculated volumes of vector(s), transfection media, and polyethylenimine (PEI), all at ambient temperature, and allowed to equilibrate before the transfection mixes were added to the cells. Post-transfection bioreactor setpoint shifts were performed 2 hours post-transfection, and cells were harvested 72 hours post-transfection. Harvested cells were lysed as described in Grieger et al. (2016) Molecular Therapy 24(2): 287-297. Crude lysate samples were collected following centrifugation to remove cellular debris. Productivity was measured by vector genome titer and capsid yield. Vector genome (VG) titer was determined by droplet digital PCR (ddPCR) by standard methods using primer/probe sets specific to the transgene payload of the vector comprising the transgene. Capsid yield was determined using enzyme-linked immunosorbent assays (ELISAs) by standard methods with an immobilized antibody directed against an epitope of the capsid as encoded by the vector comprising the capsid sequences. Percentage of intact vector genomes (% Full capsids) was calculated by dividing the vector genome productivity determined by ddPCR by the number of capsids determined by ELISA.
Based on the findings above, the effects of post-transfection pH, and the effect of supplementing the culture media with DMSO at 30-120 minutes post-transfection were further tested using a different representative AAV particle. Experiments were performed with a second HEK293 cell line according to the methods described in Examples 1 and 5 using 3 L single-use bioreactors.
AAV productivity, in terms of vector genome (VG) titer (FIG. 8A), capsid yield (FIG. 8B), and percent intact vector genomes (% Full; FIG. 8C), was measured as described in Example 1.

[4] = test system: second HEK293 cell line (AAV producer cells); assay: AAV productivity at different DMSO concentrations, shake flasks (Example 7)
Protocol: as §3
The conditions of DMSO supplementation were further tested using different representative AAV particles. Experiments were performed with a second HEK293 cell line according to the methods described in Example 1 using shake flasks.
AAV productivity, in terms of vector genome (VG) titer (FIGS. 9A and 10A), capsid yield (FIGS. 9B and 10B), and percent intact vector genomes (% Full; FIGS. 9C and 10C), was measured as described in Example 1.

[5] = FIG. 9, 0.5% to 2.25% DMSO two hours post-transfection, up to a DMSO concentration of 1.5%
[6] = FIG. 10, 0.75% DMSO two hours post-transfection compared with 0% DMSO
[7] = FIG. 10, 1.5% DMSO two hours post-transfection compared with 0.75% DMSO

## C[S+](C)[O-] [DMSO, dimethyl sulfoxide]
[1]; additive supplemented two hours post-transfection, ddPCR on crude lysate, over control conditions with no additive
  VG titer: general increase
[1]; supplemented two hours post-transfection, as compared to the other additives
  percent full capsids: higher percent full capsids
[2]
  percent yield of full capsids: higher percent yield of full capsids
[3]
  VG titers: similar
  capsid yields: similar
  intact vector genomes: similar
[4]; FIG. 9, 0.5% to 2.25% DMSO two hours post-transfection
  percent full capsids: increased
[4]; [5]
  VG titer: increased
  capsid titer: increased or comparable
[4]; FIG. 9, 0.5%, 0.75%, 1.5% and 2.25% DMSO compared with each other
  percent full capsids: comparable
[4]; [6]
  VG titer: increased
  capsid titer: increased
  percent full capsids: comparable
[4]; [7]
  VG titer: comparable
  capsid titer: decreased
  percent full capsids: increased
